Experimental findings from ChEMBL document CHEMBL1134748, “Identification and characterization of a potential ischemia-selective N-methyl-D-aspartate (NMDA) receptor ion-channel blocker, CNS 5788” (Bioorg Med Chem Lett, 2001) are described below.

Molecules are shown by their SMILES.

Data set [1] in a line: Cardiac sodium channel blocking activity by [14C]guanidinium flux assay. In kind it is functional.
Data set [2] deals with Sodium channel alpha subunits; brain (Types I, II, III) (Homo sapiens, UniProt P35498+Q99250+Q9NY46). Description: Neuronal sodium channel blocking activity by [14C]guanidinium flux assay. In kind it is functional.
Data set [3] has as its target Glutamate [NMDA] receptor. The experiment in a line: In vitro displacement of [3H]MK-801 from N-methyl-D-aspartate glutamate receptor. In kind it is protein-complex assay.
A short description of data set [4]: Half life value of the compound. The data set is classed as ADME. Particulars: rat.
The test system of data set [5] is Rattus norvegicus. The experiment in a line: Tested in rat middle cerebral artery occlusion model (MACO model) and percent reduction in total lesion volume at the dose of 4.5 mg/kg (combination ip and iv). The note with it: route intraperitoneal.
Data set [6] in a line: Lowest effective intravenous dose required to observe the behavioral effects (excitation). The data set is classed as functional.
The subject of data set [7] is Rattus norvegicus. The experiment in a line: Compound was tested in hypoxia -ischemia reduction model for percent reduction in lesion volume at the dose 10 mg/kg (ip).
Data set [8] deals with Rattus norvegicus. The experiment in a line: Compound was tested in rotarod motor assay and the effective intravenous dose required to fall from the rod was reported. The data set is classed as functional. Background: Falling from the rotarod earlier than controls is read as motor impairment.
Data set [9] has as its system Rattus norvegicus. The experiment in a line: Compound was tested in hypoxia -ischemia reduction model for percent reduction in lesion volume at the dose 20 mg/kg (ip).
For another data set, the species on record is Mus musculus. The experiment in a line: Effective dose required to block the audiogenic seizures. In kind it is functional.
The test system of data set [10] is Rattus norvegicus. The experiment in a line: Tested in rat middle cerebral artery occlusion model (MACO model) and percent reduction in total lesion volume at the dose of 1.5 mg/kg (combination ip and iv). The note with it: route intraperitoneal. In kind it is functional.
The subject of data set [11] is Rattus norvegicus. Description: Compound was tested in hypoxia -ischemia reduction model for percent reduction in lesion volume at the dose 4 mg/kg (iv). In kind it is functional.

For `CN(C(=N)Nc1cc([S+](C)[O-])ccc1Cl)c1cccc([S+](C)[O-])c1` (centres undefined), the concentration for half-maximal inhibition (IC50) (usually the concentration that inhibits the measured activity by half) in data set [1] was 81 µM; in [2], over 25 µM.

As for `CSc1cccc(N(C)C(=N)Nc2cc([S+](C)[O-])ccc2Cl)c1.Cl` (centres undefined), in [3], the affinity corresponds to a Ki of 0.834 µM. For the same compound, the results for the IC50 in [1] and in [2] were 29.5 µM and over 25 µM, respectively.

Turning to `CSc1ccc(Cl)c(NC(=N)N(C)c2cccc([S+](C)[O-])c2)c1` (single isomer, unassigned; (-)), the Ki – broadly, the dissociation constant of the complex between target and ligand, obtained from inhibition or displacement – in data set [3] is 0.321 µM. Also, the figures for the IC50 in [1] and in [2] were 26 µM and over 25 µM, respectively.

With `CSc1ccc(Cl)c(NC(=N)N(C)c2cccc([S+](C)[O-])c2)c1` (stereo in doubt; 10), in data set [3], the affinity corresponds to a Ki of 0.179 µM. The half-life (commonly the time needed for the level to fall by half in the phase considered) in data set [4] was 31 min. Further, the IC50 was 26 µM in data set [1] and 83.1 µM in data set [2]. Also, the Reduction in the data set on Rattus norvegicus [5] turned out to be 32%; in the data set on Rattus norvegicus [7], 60%; in the data set with Rattus norvegicus [9], 100%. The same compound returned a Dose in data set [6] of 4 mg/kg. The figures for the median effective dose (ED50) in the data set on Rattus norvegicus [8] and in the data set filed under Mus musculus were 8.8 mg/kg and 12 mg/kg, respectively.

`CSc1ccc(Cl)c(NC(=N)N(C)c2cccc([S+](C)[O-])c2)c1` (stereo in doubt; 15) returned a Ki in data set [3] of 0.233 µM. In [4], the T1/2 is reported as 32 min. Further, the figures for the half-inhibitory concentration (IC50) in data set [1] and in data set [2] were 23.7 µM and over 25 µM, respectively.

As for `CSc1cccc(N(C)C(=N)Nc2cc(SC)ccc2Cl)c1` [CNS-5161], the values for the Reduction in the data set with Rattus norvegicus [10] and in the data set with Rattus norvegicus [11] were 33% and 74%, respectively. For the same compound, the IC50 in data set [1] came out at 2.25 µM; in [2] it was 1.75 µM. In data set [6], this compound yielded a Dose of 0.25 mg/kg. Also, the 50% effective dose (ED50) (in general, the midpoint of the dose-response relation) with Rattus norvegicus [8] turned out to be 0.14 mg/kg; in the data set listed under Mus musculus, 0.9 mg/kg.
